Assays:
[1] = molecular target: Wild-type human active MASTL (Homo sapiens (Human), UniProt Q96GX5); test: MASTL activity assay; assay type: biochemical; conditions: ATP 18 μM, biotin tagged 40-mer ENSA peptide 10 nM, 60 minutes at room temperature, HTRF/FRET readout
Method: Wild-type human active MASTL (154 pM) was incubated in assay buffer (50 mM HEPES, 100 mM NaCl, 0.1 mM EGTA, 10 mM MgCl2, 0.01% Tween-20, 0.5 mM TCEP, pH 7.5) with biotin tagged 40-mer ENSA peptide (10 nM), test compound and ATP (18 μM) for 60 minutes at room temperature. Test compounds were assayed using a 12-point dose range consisting of a 0, DMSO control and 10 sequential doses consisting from 0.0005, 0.002, 0.005, 0.014, 0.04, 0.12, 0.37, 1.11, 3.33 and 10 μM. The DMSO concentration was the same (1%) in all samples. An equal volume of detection buffer (assay buffer+267.5 pM Ab-K, 1.25 nM SA-D2, 20 mM EDTA and 400 mM KF) was added to stop the reaction to make a final volume of 20 μl, RT for 60 mins. Activity was measured using a plate reader (PerkinElmer EnSight) by the FRET signal generated between SA-D2 (streptavidin-D2) and Ab-K (anti-phospho-Serine 67 ENSA antibody (rabbit polyclonal, using standard techniques by a commercial supplier) conjugated to Cryptate). HTRF reagents (CisBio) were prepared as per the manufacturer recommendations. The 40-mer biotin-tagged ENSA peptide (synthesised by Bionics) used was based around Serine 67 on ENSA ([…]).

T cells = conditions: disclosed in CN 116942819; cited from earlier work
[2] = tested on: breast cancer MDA-MB-231 cells; conditions: disclosed in CN 116942819; cited from earlier work
[3] = tested on: breast cancer MDA-MB-468 cells; conditions: disclosed in CN 116942819; cited from earlier work

Chain of Wild-type human active MASTL (Q96GX5 whole entry): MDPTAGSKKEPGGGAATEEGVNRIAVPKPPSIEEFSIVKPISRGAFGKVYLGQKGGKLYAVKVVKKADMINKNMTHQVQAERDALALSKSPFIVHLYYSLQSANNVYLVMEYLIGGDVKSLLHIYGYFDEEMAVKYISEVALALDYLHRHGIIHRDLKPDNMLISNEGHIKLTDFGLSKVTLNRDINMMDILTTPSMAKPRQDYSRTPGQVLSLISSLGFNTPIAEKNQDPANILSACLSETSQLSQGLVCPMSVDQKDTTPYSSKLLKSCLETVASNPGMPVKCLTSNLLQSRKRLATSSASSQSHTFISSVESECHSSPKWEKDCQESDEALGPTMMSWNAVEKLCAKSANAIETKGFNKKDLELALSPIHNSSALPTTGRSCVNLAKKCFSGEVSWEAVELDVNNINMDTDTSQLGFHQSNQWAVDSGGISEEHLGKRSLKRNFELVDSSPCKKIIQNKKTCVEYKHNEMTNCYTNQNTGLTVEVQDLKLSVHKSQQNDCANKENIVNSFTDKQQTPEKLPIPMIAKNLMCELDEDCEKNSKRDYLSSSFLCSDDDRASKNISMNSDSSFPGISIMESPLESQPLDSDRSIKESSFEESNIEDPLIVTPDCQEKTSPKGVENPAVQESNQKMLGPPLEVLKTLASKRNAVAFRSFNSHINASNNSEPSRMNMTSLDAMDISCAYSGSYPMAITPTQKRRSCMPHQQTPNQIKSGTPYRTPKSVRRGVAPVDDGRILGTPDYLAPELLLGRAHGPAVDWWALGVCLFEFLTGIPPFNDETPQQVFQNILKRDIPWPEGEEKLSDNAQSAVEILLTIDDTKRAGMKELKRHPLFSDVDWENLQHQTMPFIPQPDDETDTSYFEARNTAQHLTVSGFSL

IC50 [1] [nM] | Structure (SMILES) | anti-tumor function of T cells (T cells) | effect on PD-L1 expression of tumor cells which expressed PD-L1 in a high level and were not affected by interferon [2] | effect on the up-regulation of the interferon-induced PD-L1 expression [3]
1 to 500 | CC(C)CC(Nc1nc(N)nc(-c2ccc3cnn(C)c3c2)n1)c1c[nH]c(C(F)(F)F)n1 (single isomer, unassigned) [Example 180B, 6-(1-methylindazol-6-yl)-N4-[(1R or 1S)-3-methyl-1-[2-(trifluoromethyl)-1H-imidazol-4-yl]butyl]-1,3,5-triazine-2,4-diamine] | – | – | –
– | O=C(Nc1nc2ccccc2[nH]1)c1cccc(-n2cccc2)c1 [MKI-1] | effectively enhance the anti-tumor function of T cells | not possible to effect | remarkable inhibition effect

Reference: patent US20250352549A1, “SUBSTITUTED HETEROCYCLIC COMPOUND DERIVATIVES AND THEIR PHARMACEUTICAL USE” (AVELOS THERAPEUTICS INC., priority 0001, published 2025)
